From patent US10787430B2, “Hemoglobin modifier compounds and uses thereof” (FronThera U.S. Pharmaceuticals LLC, priority 2016, dated 2020) come the findings set out here.

For the assay, the target named is T1, hemoglobin (20% hct blood) (Homo sapiens, UniProt P68871+P69905).
T1 construct: Normal whole blood was collected from adult healthy donors; from tissue; host or cells: normal human whole blood (red blood cells), adult healthy donors
The experiment in a line: Dose-dependent whole blood OEC studies. It counts as cell-based. The settings on record: 37° C., 1 hr; for delta p50 0.2 mM: 0.2 mM compound; for delta p50 0.5 mM: 0.5 mM compound. The protocol: Materials: Normal whole blood was collected from adult healthy donors at the Virginia Commonwealth University after informed consent. The use of these human samples is in accordance with regulations of the IRB for Protection of Human Subjects. Compounds (50 mM-100 mM concentration in DMSO) were stored at 15° C. or room temperature until use.
To 2 ml 20% hct blood, 0.2 or 0.5 or 1 mM compound was added and kept shaking at 37° C. for 1 hr. OEC analysis was performed as described above to determine partial pressure of oxygen (pO2) and Hb oxygen saturation values (sO2). A control without compound but containing equivalent amount of DMSO was performed (1%). GBT440 was used as a positive control. Table 2 below lists the delta p50% values.

T1 sequence (P69905 2-142 limits assumed): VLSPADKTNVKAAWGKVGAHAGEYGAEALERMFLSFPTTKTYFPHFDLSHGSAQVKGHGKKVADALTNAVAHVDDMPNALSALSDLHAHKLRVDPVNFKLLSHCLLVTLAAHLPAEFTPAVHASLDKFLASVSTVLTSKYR
T1 sequence (P68871 2-147 limits assumed): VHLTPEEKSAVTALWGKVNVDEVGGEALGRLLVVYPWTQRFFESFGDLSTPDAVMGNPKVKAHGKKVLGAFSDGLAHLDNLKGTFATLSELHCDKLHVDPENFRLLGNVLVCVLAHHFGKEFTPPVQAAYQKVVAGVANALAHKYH

On to `CC(C)n1nccc1-c1ncccc1COc1ccc2sncc2c1C=O` [Example 11, 5-((2-(1-isopropyl-1H-pyrazol-5-yl)pyridin-3-yl)methoxy)benzo[d]isothiazole-4-carbaldehyde], for which the “delta p50 0.2 mM” value was −12.80% and the “delta p50 0.5 mM” value is reported as −37.60%.

In the case of `CC(C)n1nccc1-c1ncccc1COc1ccc2ncsc2c1C=O` [Example 12, 6-((2-(1-isopropyl-1H-pyrazol-5-yl)pyridin-3-yl)methoxy)benzo[d]thiazole-7-carbaldehyde], the “delta p50 0.2 mM” value is reported as −26.60% and the “delta p50 0.5 mM” value is given as −58.40%.

Take `CC(C)n1nccc1-c1ncccc1COc1ccc2scnc2c1C=O` [Example 16, 5-((2-(1-isopropyl-1H-pyrazol-5-yl)pyridin-3-yl)methoxy)benzo[d]thiazole-4-carbaldehyde]: the “delta p50 0.2 mM” value is −8.90% and the “delta p50 0.5 mM” value is −14.70%.

Turning to `CC(C)n1nccc1-c1ncccc1COc1ccc2snnc2c1C=O` [Example 17, 5-((2-(1-isopropyl-1H-pyrazol-5-yl)pyridin-3-yl)methoxy)benzo[d][1,2,3]thiadiazole-4-carbaldehyde], the “delta p50 0.2 mM” value is recorded as −12% and the “delta p50 0.5 mM” value is recorded as −30%.

For `CC(C)n1nccc1-c1ncccc1COc1ccc2nnsc2c1C=O` [Example 18, 6-((2-(1-isopropyl-1H-pyrazol-5-yl)pyridin-3-yl)methoxy)benzo[d][1,2,3]thiadiazole-7-carbaldehyde], the “delta p50 0.2 mM” value is reported as −2.80% and the “delta p50 0.5 mM” value is reported as −8.10%.

Turning to `CC(C)n1nccc1-c1ncccc1COc1ccc2ncncc2c1C=O` [Example 19, 6-((2-(1-isopropyl-1H-pyrazol-5-yl)pyridin-3-yl)methoxy)quinazoline-5-carbaldehyde], the “delta p50 0.2 mM” value is listed as −8.20% and the “delta p50 0.5 mM” value is reported as −18.10%.

With `CC(C)n1ncc(F)c1-c1ncccc1COc1ccc2ncoc2c1C=O` [Example 22, 6-((2-(4-fluoro-1-isopropyl-1H-pyrazol-5-yl)pyridin-3-yl)methoxy)benzo[d]oxazole-7-carbaldehyde], the “delta p50 0.2 mM” value was −12.90% and the “delta p50 0.5 mM” value is −35.50%.

Turning to `[2H]C([2H])(Oc1cccc(O)c1C=O)c1cccnc1-c1c(F)cnn1C(C)C` [Example 25, 2-((2-(4-fluoro-1-isopropyl-1H-pyrazol-5-yl)pyridin-3-yl)methoxy-d2)-6-hydroxybenzaldehyde], the “delta p50 0.2 mM” value is −14.30% and the “delta p50 0.5 mM” value is −36.10%.

As to `[2H]C([2H])(Oc1cc(F)cc(O)c1C=O)c1cccnc1-c1c(F)cnn1C(C)C` [Example 26, 4-fluoro-2-((2-(4-fluoro-1-isopropyl-1H-pyrazol-5-yl)pyridin-3-yl)methoxy-d2)-6-hydroxybenzaldehyde], the “delta p50 0.2 mM” value was −11.10% and the “delta p50 0.5 mM” value was −26.10%.

As to `[2H]C([2H])(Oc1ccc2ncoc2c1C=O)c1cccnc1-c1ccnn1C(C)C` [Example 28, 6-((2-(1-isopropyl-1H-pyrazol-5-yl)pyridin-3-yl)methoxy-d2)benzo[d]oxazole-7-carbaldehyde], the “delta p50 0.2 mM” value is on record as −11.90% and the “delta p50 0.5 mM” value is −40.70%.

On to `[2H]C([2H])([2H])C(n1nccc1-c1ncccc1COc1cc(F)cc(O)c1C=O)C([2H])([2H])[2H]` [Example 31, 4-fluoro-2-hydroxy-6-((2-(1-(propan-2-yl-1,1,1,3,3,3-d6)-1H-pyrazol-5-yl)pyridin-3-yl)methoxy)benzaldehyde], for which the “delta p50 0.2 mM” value is reported as −9.80% and the “delta p50 0.5 mM” value was −36.10%.

For `[2H]C([2H])([2H])C(n1ncc(F)c1-c1ncccc1COc1cccc(O)c1C=O)C([2H])([2H])[2H]` [Example 32, 2-((2-(4-fluoro-1-(propan-2-yl-1,1,1,3,3,3-d6)-1H-pyrazol-5-yl)pyridin-3-yl)methoxy)-6-hydroxybenzaldehyde], the “delta p50 0.2 mM” value was −12.70% and the “delta p50 0.5 mM” value is recorded as −39.20%.

In the case of `[2H]C([2H])([2H])C(n1nccc1-c1ncccc1COc1ccc2ncoc2c1C=O)C([2H])([2H])[2H]` [Example 33, 6-((2-(1-(propan-2-yl-1,1,1,3,3,3-d6)-1H-pyrazol-5-yl)pyridin-3-yl)methoxy)benzo[d]oxazole-7-carbaldehyde], the “delta p50 0.2 mM” value is recorded as −12.70% and the “delta p50 0.5 mM” value is −39.70%.

For `[2H]C([2H])([2H])C(n1ncc(F)c1-c1ncncc1COc1cc(F)cc(O)c1C=O)C([2H])([2H])[2H]` [Example 34, 4-fluoro-2-((4-(4-fluoro-1-(propan-2-yl-1,1,1,3,3,3-d6)-1H-pyrazol-5-yl)pyrimidin-5-yl)methoxy)-6-hydroxybenzaldehyde], the “delta p50 0.2 mM” value is reported as −6.50% and the “delta p50 0.5 mM” value was −10.00%.

For `[2H]C([2H])([2H])C(n1ncc(F)c1-c1ncncc1COc1cccc(O)c1C=O)C([2H])([2H])[2H]` [Example 35, 2-((4-(4-fluoro-1-(propan-2-yl-1,1,1,3,3,3-d6)-1H-pyrazol-5-yl)pyrimidin-5-yl)methoxy)-6-hydroxybenzaldehyde], the “delta p50 0.2 mM” value is recorded as −10.30% and the “delta p50 0.5 mM” value is −29.80%.

With `[2H]C([2H])([2H])C(n1nccc1-c1ncncc1COc1cc(F)cc(O)c1C=O)C([2H])([2H])[2H]` [Example 36, 4-fluoro-2-hydroxy-6-((4-(1-(propan-2-yl-1,1,1,3,3,3-d6)-1H-pyrazol-5-yl)pyrimidin-5-yl)methoxy)benzaldehyde], the “delta p50 0.2 mM” value is on record as −9.30% and the “delta p50 0.5 mM” value is given as −14%.

For `[2H]C([2H])([2H])C(n1nccc1-c1ncncc1COc1cccc(O)c1C=O)C([2H])([2H])[2H]` [Example 37, 2-hydroxy-6-((4-(1-(propan-2-yl-1,1,1,3,3,3-d6)-1H-pyrazol-5-yl)pyrimidin-5-yl)methoxy)benzaldehyde], the “delta p50 0.2 mM” value is reported as −16.20% and the “delta p50 0.5 mM” value is −46.10%.

In the case of `[2H]C([2H])(Oc1cc(F)cc(O)c1C=O)c1cncnc1-c1ccnn1C(C)C` [Example 39, 4-fluoro-2-hydroxy-6-((4-(1-isopropyl-1H-pyrazol-5-yl)pyrimidin-5-yl)methoxy-d2)benzaldehyde], the “delta p50 0.2 mM” value is recorded as −12.20% and the “delta p50 0.5 mM” value is −29.30%.

For `[2H]C([2H])(Oc1ccc(F)c(O)c1C=O)c1cncnc1-c1ccnn1C(C)C` [Example 40, 3-fluoro-2-hydroxy-6-((4-(1-isopropyl-1H-pyrazol-5-yl)pyrimidin-5-yl)methoxy-d2)benzaldehyde], the “delta p50 0.2 mM” value is listed as −6% and the “delta p50 0.5 mM” value is on record as −12%.

With `[2H]C([2H])(Oc1cccc(O)c1C=O)c1cncnc1-c1c(F)cnn1C(C)C` [Example 41, 2-((4-(4-fluoro-1-isopropyl-1H-pyrazol-5-yl)pyrimidin-5-yl)methoxy-d2)-6-hydroxybenzaldehyde], the “delta p50 0.2 mM” value is reported as −14.40% and the “delta p50 0.5 mM” value was −30.20%.

Regarding `[2H]C([2H])(Oc1cccc(O)c1C=O)c1cncnc1-n1ccnc1C(C)C` [Example 42, 2-hydroxy-6-((4-(2-isopropyl-1H-imidazol-1-yl)pyrimidin-5-yl)methoxy-d2)benzaldehyde], the “delta p50 0.2 mM” value was −10.20% and the “delta p50 0.5 mM” value is on record as −23.10%.

In the case of `[2H]C([2H])(Oc1ccc2ncoc2c1C=O)c1cncnc1-n1ccnc1C(C)C` [Example 43, 6-((4-(2-isopropyl-1H-imidazol-1-yl)pyrimidin-5-yl)methoxy-d2)benzo[d]oxazole-7-carbaldehyde], the “delta p50 0.2 mM” value is listed as −9.90% and the “delta p50 0.5 mM” value is −28.10%.

Consider `[2H]C([2H])(Oc1cc(F)cc(O)c1C=O)c1cncnc1-n1ccnc1C(C)C` [Example 44, 4-fluoro-2-hydroxy-6-((4-(2-isopropyl-1H-imidazol-1-yl)pyrimidin-5-yl)methoxy-d2)benzaldehyde], for which the “delta p50 0.2 mM” value is on record as −6.90% and the “delta p50 0.5 mM” value is on record as −22.10%.

Take `[2H]C([2H])(Oc1cccc(O)c1C=O)c1cccnc1-n1ccnc1C1CC1` [Example 45, 2-((2-(2-cyclopropyl-1H-imidazol-1-yl)pyridin-3-yl)methoxy-d2)-6-hydroxybenzaldehyde]: the “delta p50 0.2 mM” value is listed as −10% and the “delta p50 0.5 mM” value is given as −29.80%.

Take `[2H]C([2H])(Oc1cccc(O)c1C=O)c1ncccc1-c1ccnn1C(C)C` [Example 46, 2-hydroxy-6-((3-(1-isopropyl-1H-pyrazol-5-yl)pyridin-2-yl)methoxy-d2)benzaldehyde]: the “delta p50 0.2 mM” value is on record as −12.80% and the “delta p50 0.5 mM” value is reported as −37.90%.

As to `[2H]C([2H])(Oc1cc(F)cc(O)c1C=O)c1ncccc1-c1ccnn1C(C)C` [Example 47, 4-fluoro-2-hydroxy-6-((3-(1-isopropyl-1H-pyrazol-5-yl)pyridin-2-yl)methoxy-d2)benzaldehyde], the “delta p50 0.2 mM” value was −15.30% and the “delta p50 0.5 mM” value is recorded as −40.80%.

`[2H]C(C)(C)n1nccc1-c1ncccc1COc1cccc(O)c1C=O` [Example 48, 2-hydroxy-6-((2-(1-(propan-2-yl-2-d)-1H-pyrazol-5-yl)pyridin-3-yl)methoxy)benzaldehyde]: the “delta p50 0.2 mM” value is given as −11% and the “delta p50 0.5 mM” value is recorded as −38.10%.

Turning to `[2H]C(C)(C)n1nccc1-c1ncncc1COc1cccc(O)c1C=O` [Example 50, 2-hydroxy-6-((4-(1-(propan-2-yl-2-d)-1H-pyrazol-5-yl)pyrimidin-5-yl)methoxy)benzaldehyde], the “delta p50 0.2 mM” value is recorded as −16.10% and the “delta p50 0.5 mM” value is given as −38.4.%.
